Source: US6943174B2, “6,5-Fused bicyclic heterocycles” (Warner-Lambert Company, priority 2000, dated 2005)

Assays:
human 15-LO = molecular target: T1, human 15-LO (Homo sapiens, UniProt P16050); assay: Human Lysate 15-LO Assay (HUM15LO); format: biochemical; details: 15-LO catalyzed oxidation of linoleic acid, 15 minutes at 4° C.
T1 construct: made in house; host or cells: Sf9 insect cells (baculovirus, Bac-to-Bac)
T1 sequence (P16050 1-662): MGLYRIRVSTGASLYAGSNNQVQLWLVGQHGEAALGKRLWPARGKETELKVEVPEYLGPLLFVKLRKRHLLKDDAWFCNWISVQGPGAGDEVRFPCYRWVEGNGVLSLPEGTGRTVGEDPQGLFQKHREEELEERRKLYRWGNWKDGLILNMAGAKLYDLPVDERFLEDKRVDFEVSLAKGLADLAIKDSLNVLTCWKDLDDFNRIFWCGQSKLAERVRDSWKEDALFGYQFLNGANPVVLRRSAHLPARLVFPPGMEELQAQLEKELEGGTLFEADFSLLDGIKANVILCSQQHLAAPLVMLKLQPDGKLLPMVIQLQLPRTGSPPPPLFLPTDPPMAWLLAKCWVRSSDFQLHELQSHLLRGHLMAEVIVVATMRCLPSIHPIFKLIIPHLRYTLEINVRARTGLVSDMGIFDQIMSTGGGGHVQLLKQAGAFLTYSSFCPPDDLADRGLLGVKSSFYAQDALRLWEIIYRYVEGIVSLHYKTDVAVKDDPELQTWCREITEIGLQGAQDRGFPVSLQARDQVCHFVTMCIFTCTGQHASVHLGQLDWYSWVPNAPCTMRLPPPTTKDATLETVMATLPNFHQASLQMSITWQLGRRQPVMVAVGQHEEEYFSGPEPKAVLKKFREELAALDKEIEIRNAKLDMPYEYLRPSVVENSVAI
Experimental: The HUM15LO assay measures inhibition of 15-LO catalyzed oxidation of linoleic acid to the hydroperoxy fatty acid 13-(S)HPODE, a conjugated diene. In the HUM15LO assay, a test compound was incubated with 15-LO enzyme in the presence of the linoleic acid substrate. For example, a known amount of a compound of the present invention and 100 μL of human 15-LO and 174 μM of linoleic acid in PBS containing 0.2% sodium cholate were incubated for 15 minutes at 4° C. The test reaction was stopped with 100 μL of mobile phase and 10 μL of triethyl phosphite. […] 13-HPODE was quantitated by comparing peak areas of individual samples with those from a standard curve generated using authentic 13-HODE. The test reaction was compared to a control reaction, which is identical to the test reaction except a test compound is not present. Percent inhibition was calculated as […], expressed as a percent.
Human 15-LO was generated in a recombinant 15-lipoxygenase bacculovirus expression system, using Gibco/BRL/Life Technologies' Bac-to-Bac expression reagents; T4 DNA ligase, Kanamycin, Gentamicin, tetracycline, penicillin, streptomycin, Bluo-gal, IPTC; DH10Bac competent cells, SOC, LB medium, Sf-900 II SFM media, Sf9 insect cells, Cell Fectin, and EcoRI, BamHI, and KpnI restriction enzymes.

SMILES | inhibition (human 15-LO; at 10 μM) | melting point | IC50 (human 15-LO)
COc1ccc(-c2nc3cccnc3[nH]2)cc1N [Chemical Example 1, 5-(3H-imidazo[4,5-b]pyridin-2-yl)-2-methoxy-phenylamine] | 39% | – | –
COc1ccc(-c2nc3cccnc3[nH]2)cc1NS(=O)(=O)c1cccs1 [Chemical Example 2, Thiophene-2-sulfonic acid [5-(3H-imidazo[4,5-b]pyridin-2-yl)-2-methoxy-phenyl]-amide] | – | 252 to 254 °C | 10 µM
